What was measured:
Format in all cases: in vivo
[1] = system: giant foxtail (Setaria faberi); assay: Test G Pre-Emergence Protocol; settings: Setaria faberi, pre-emergence, 312 h, evaluated after 13 days
Summary of the method: (§1)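 Test compound in 0.5% Tween 20 acetone/water (50:50) was applied at three rates (15.625, 62.5, 250 g/ha) to soil sown one day earlier. After 13 days plants were scored for injury, where 0 means unaffected and 100 means completely damaged.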

[2] = system: barnyardgrass (Echinochloa crus-galli); assay: Test G Pre-Emergence Protocol; settings: Echinochloa crus-galli, pre-emergence, 312 h, evaluated after 13 days
Summary of the method: as §1

[3] = system: redroot pigweed (Amaranthus retroflexus); assay: Test G Pre-Emergence Protocol; settings: Amaranthus retroflexus, pre-emergence, 312 h, evaluated after 13 days
Summary of the method: as §1

[4] = system: ivy-leaved morning glory (Ipomoea hederacea); assay: Test G Pre-Emergence Protocol; settings: Ipomoea, pre-emergence, 312 h, evaluated after 13 days
Summary of the method: as §1

[5] = system: velvetleaf (Abutilon theophrasti); assay: Test G Pre-Emergence Protocol; settings: Abutilon theophrasti, pre-emergence, 312 h, evaluated after 13 days
Summary of the method: as §1

[6] = system: corn (Zea mays); assay: Test G Pre-Emergence Protocol; settings: Zea mays, pre-emergence, 312 h, evaluated after 13 days
Summary of the method: as §1

[7] = system: giant foxtail (Setaria faberi); assay: Test G Post-Emergence Protocol; settings: Setaria faberi, post-emergence, 312 h
Summary of the method: (§2)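 Eight days post-sowing, plants received a spray of test compound (acetone/water 50:50, 0.5% Tween 20) at 15.625, 62.5 or 250 g/ha. Glasshouse regime thereafter: 24/16 °C, 14 h light, 65% humidity. Assessment after 13 days on a 0–100 damage scale.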

[8] = system: barnyardgrass (Echinochloa crus-galli); assay: Test G Post-Emergence Protocol; settings: Echinochloa crus-galli, post-emergence, 312 h
Summary of the method: as §2

[9] = system: redroot pigweed (Amaranthus retroflexus); assay: Test G Post-Emergence Protocol; settings: Amaranthus retroflexus, post-emergence, 312 h
Summary of the method: as §2

[10] = system: ivy-leaved morning glory (Ipomoea hederacea); assay: Test G Post-Emergence Protocol; settings: Ipomoea, post-emergence, 312 h
Summary of the method: as §2

[11] = system: velvetleaf (Abutilon theophrasti); assay: Test G Post-Emergence Protocol; settings: Abutilon theophrasti, post-emergence, 312 h
Summary of the method: as §2

[12] = system: corn (Zea mays); assay: Test G Post-Emergence Protocol; settings: Zea mays, post-emergence, 312 h
Summary of the method: as §2

CN1C[C@@H](c2ccc(C(F)(F)F)cc2)[C@H](C(=O)Nc2cccc(C(F)(F)F)n2)C1=O (racemic) [Compound 1563]
0%: pest or weed control at 15.625 g/ha ([1]; 15.625 g ai/ha, read-out: Foxtail, Giant damage rating (100=total damage to plant; 0=no damage to plant)) | pest or weed control at 62.5 g/ha ([1]; 62.5 g ai/ha, 100=total damage to plant, 0=no damage to plant, read-out: plant damage rating, Foxtail, Giant) | pest or weed control at 250 g/ha ([1]; 250 g ai/ha, read-out: Foxtail, Giant damage rating (100=total damage to plant; 0=no damage to plant)) | pest or weed control at 15.625 g/ha ([2]; 15.625 g ai/ha, read-out: Barnyard grass damage rating (100=total damage to plant; 0=no damage to plant)) | pest or weed control at 62.5 g/ha ([2]; 62.5 g ai/ha, 100=total damage to plant, 0=no damage to plant, read-out: plant damage rating, Barnyardgrass) | pest or weed control at 250 g/ha ([2]; 250 g ai/ha, read-out: Barnyardgrass damage rating (100=total damage to plant; 0=no damage to plant)) | pest or weed control at 15.625 g/ha ([3]; 15.625 g ai/ha, read-out: Pigweed, Redroot damage rating (100=total damage to plant; 0=no damage to plant)) | pest or weed control at 62.5 g/ha ([3]; 62.5 g ai/ha, 100=total damage to plant, 0=no damage to plant, read-out: plant damage rating, Pigweed, Redroot) | pest or weed control at 250 g/ha ([3]; 250 g ai/ha, read-out: Pigweed, Redroot damage rating (100=total damage to plant; 0=no damage to plant)) | pest or weed control at 15.625 g/ha ([4]; 15.625 g ai/ha, read-out: Morning-glory, Ivy-leaved damage rating (100=total damage to plant; 0=no damage to plant)) | pest or weed control at 62.5 g/ha ([4]; 62.5 g ai/ha, 100=total damage to plant, 0=no damage to plant, read-out: plant damage rating, Morningglory, Ivy-leaved) | pest or weed control at 250 g/ha ([4]; 250 g ai/ha, read-out: Morningglory, Ivy-leaved damage rating (100=total damage to plant; 0=no damage to plant)) | pest or weed control at 15.625 g/ha ([5]; 15.625 g ai/ha, read-out: Velvetleaf damage rating (100=total damage to plant; 0=no damage to plant)) | pest or weed control at 62.5 g/ha ([5]; 62.5 g ai/ha, 100=total damage to plant, 0=no damage to plant, read-out: plant damage rating, Velvetleaf) | pest or weed control at 250 g/ha ([5]; 250 g ai/ha, read-out: Velvetleaf damage rating (100=total damage to plant; 0=no damage to plant)) | plant injury at 15.625 g/ha ([6]; 15.625 g ai/ha, read-out: Corn damage rating (100=total damage to plant; 0=no damage to plant)) | plant injury at 62.5 g/ha ([6]; 62.5 g ai/ha, 100=total damage to plant, 0=no damage to plant, read-out: plant damage rating, Corn) | plant injury at 250 g/ha ([6]; 250 g ai/ha, read-out: Corn damage rating (100=total damage to plant; 0=no damage to plant)) | pest or weed control at 15.625 g/ha ([7]; 15.625 g ai/ha, evaluated after 13 days (100=total damage to plant; 0=no damage to plant), read-out: Foxtail, Giant damage rating) | pest or weed control at 62.5 g/ha ([7]; 62.5 g ai/ha, evaluated after 13 days, read-out: Foxtail, Giant damage rating (100=total damage to plant; 0=no damage to plant)) | pest or weed control at 250 g/ha ([7]; 250 g ai/ha, evaluated after 13 days, read-out: damage to plant, Foxtail, Giant (100=total damage to plant; 0=no damage to plant)) | pest or weed control at 15.625 g/ha ([8]; 15.625 g ai/ha, evaluated after 13 days (100=total damage to plant; 0=no damage to plant), read-out: Barnyardgrass damage rating) | pest or weed control at 62.5 g/ha ([8]; 62.5 g ai/ha, evaluated after 13 days, read-out: Barnyardgrass damage rating (100=total damage to plant; 0=no damage to plant)) | pest or weed control at 250 g/ha ([8]; 250 g ai/ha, evaluated after 13 days, read-out: damage to plant, Barnyardgrass (100=total damage to plant; 0=no damage to plant)) | pest or weed control at 15.625 g/ha ([9]; 15.625 g ai/ha, evaluated after 13 days (100=total damage to plant; 0=no damage to plant), read-out: Pigweed, Redroot damage rating) | pest or weed control at 62.5 g/ha ([9]; 62.5 g ai/ha, evaluated after 13 days, read-out: Pigweed, Redroot damage rating (100=total damage to plant; 0=no damage to plant)) | pest or weed control at 250 g/ha ([9]; 250 g ai/ha, evaluated after 13 days, read-out: damage to plant, Pigweed, Redroot (100=total damage to plant; 0=no damage to plant)) | pest or weed control at 15.625 g/ha ([10]; 15.625 g ai/ha, evaluated after 13 days (100=total damage to plant; 0=no damage to plant), read-out: Morningglory, Ivy-leaved damage rating) | pest or weed control at 62.5 g/ha ([10]; 62.5 g ai/ha, evaluated after 13 days, read-out: Morningglory, Ivy-leaved damage rating (100=total damage to plant; 0=no damage to plant)) | pest or weed control at 250 g/ha ([10]; 250 g ai/ha, evaluated after 13 days, read-out: damage to plant, Morningglory, Ivy-leaved (100=total damage to plant; 0=no damage to plant)) | pest or weed control at 15.625 g/ha ([11]; 15.625 g ai/ha, evaluated after 13 days (100=total damage to plant; 0=no damage to plant), read-out: Velvetleaf damage rating) | pest or weed control at 62.5 g/ha ([11]; 62.5 g ai/ha, evaluated after 13 days, read-out: Velvetleaf damage rating (100=total damage to plant; 0=no damage to plant)) | pest or weed control at 250 g/ha ([11]; 250 g ai/ha, evaluated after 13 days, read-out: damage to plant, Velvetleaf (100=total damage to plant; 0=no damage to plant)) | plant injury at 15.625 g/ha ([12]; 15.625 g ai/ha, evaluated after 13 days (100=total damage to plant; 0=no damage to plant), read-out: Corn damage rating) | plant injury at 62.5 g/ha ([12]; 62.5 g ai/ha, evaluated after 13 days, read-out: Corn damage rating (100=total damage to plant; 0=no damage to plant)) | plant injury at 250 g/ha ([12]; 250 g ai/ha, evaluated after 13 days, read-out: damage to plant, Corn (100=total damage to plant; 0=no damage to plant))

From patent US12077503B2, “Substituted cyclic amides and their use as herbicides” (FMC CORPORATION, priority 2015, dated 2024)
